Laboratory results: patent US20250223259A1, “PROTEASE INHIBITORS FOR TREATING OR PREVENTING CORONAVIRUS INFECTION” (Merck Sharp & Dohme LLC, priority 2022, published 2025)

These molecules were tested against SARS2 coronavirus 3CL protease (Severe acute respiratory syndrome coronavirus 2 (2019-nCoV) (SARS-CoV-2), UniProt P0DTD1) (assay: SARS2 Coronavirus 3CL Protease Assay (FRET)). Conditions: SARS2 3CLPro FRET assay; 5 nM enzyme, 30 min pre-incubation with compound, 15 uM peptide substrate, 4 h room temperature.
Assay type: biochemical
Method: The enzymatic activity of SARS2 coronavirus 3CL protease was determined in a FRET (fluorescence resonance energy transfer)-based assay measuring the cleavage of a peptide substrate by recombinantly expressed and purified enzyme. Cleavage of the peptide SEQ ID NO:1 (CPC Scientific) by SARS2 3CL protease was measured in reaction buffer (50 mM Hepes pH 7.5, 0.01% Triton X-100, 0.01% BSA, 2 mM DTT). SARS2 3CL protease (5 nM final concentration) was pre-incubated with compound for 30 minutes before reaction initiation with peptide substrate (15 uM final concentration). Room temperature reactions (4 h) were quenched by addition of a high dose of inhibitor and read on an appropriate plate reader (excitation wavelength=495 nm, emission wavelength=520 nm). Data were analyzed by a standard 4 parameter fit to determine IC50 values.
With `COC(=O)N[C@H](C(=O)N1CCCC(C)C1C(=O)N[C@@H](CCC(C)(F)F)C(=O)C(=O)NC1CC1)C(C)(C)C` (single isomer, unassigned) [Example 49, Methyl ((S)-1-((2(R or S),3(R or S))-2-(((S)-1-(cyclopropylamino)-6,6-difluoro-1,2-dioxoheptan-3-yl)carbamoyl)-3-methylpiperidin-1-yl)-3,3-dimethyl-1-oxobutan-2-yl)carbamate] the IC50 was 60 nM.
For `COC(=O)N[C@H](C(=O)N1CCC(C)C1C(=O)N[C@@H](CCC(C)(F)F)C(=O)C(=O)NC1CC1)C(C)(C)C` (single isomer, unassigned) [Example 51, Methyl ((S)-1-((2(R or S),3(R or S))-2-(((S)-1-(cyclopropylamino)-6,6-difluoro-1,2-dioxoheptan-3-yl)carbamoyl)-3-methylpyrrolidin-1-yl)-3,3-dimethyl-1-oxobutan-2-yl)carbamate], the IC50 was 97 nM.
In the case of `COC(=O)N[C@H](C(=O)N1CC(C)(C)CCC1C(=O)N[C@@H](CCC(C)(F)F)C(=O)C(=O)NC1CC1)C(C)(C)C` (single isomer, unassigned) [Example 52, Methyl ((S)-1-(R or S)-2-(((S)-1-(cyclopropylamino)-6,6-difluoro-1,2-dioxoheptan-3-yl)carbamoyl)-5,5-dimethylpiperidin-1-yl)-3,3-dimethyl-1-oxobutan-2-yl)carbamate], the IC50 is reported as 144 nM.
In the case of `COC(=O)N[C@H](C(=O)N1CC(C2CCOC2)C[C@H]1C(=O)N[C@@H](CCC(C)(F)F)C(=O)C(=O)NC1CC1)C(C)(C)C` (single isomer, unassigned) [Example 54, Methyl ((S)-1-((2S,4(R or S))-2-(((S)-1-(cyclopropylamino)-6,6-difluoro-1,2-dioxoheptan-3-yl)carbamoyl)-4-((R or S)-tetrahydrofuran-3-yl)pyrrolidin-1-yl)-3,3-dimethyl-1-oxobutan-2-yl)carbamate], the IC50 is reported as 201 nM.
Work on `COC(=O)N[C@H](C(=O)N1CCCCC1C(=O)N[C@@H](CCC(C)(F)F)C(=O)C(=O)NC1CC1)C(C)(C)C` (single isomer, unassigned) [Example 55, Methyl ((S)-1-((S or R)-2-(((S)-1-(cyclopropylamino)-6,6-difluoro-1,2-dioxoheptan-3-yl)carbamoyl)piperidin-1-yl)-3,3-dimethyl-1-oxobutan-2-yl)carbamate: methyl ((S)-1-((R or S)-2-(((S)-1-(cyclopropylamino)-6,6-difluoro-1,2-dioxoheptan-3-yl)carbamoyl)piperidin-1-yl)-3,3-dimethyl-1-oxobutan-2-yl)carbamate] yielded an IC50 of 239 nM.
In the case of `COC(=O)N[C@H](C(=O)N1CC2(CCC(F)(F)CC2)CC1C(=O)N[C@@H](CCC(C)(F)F)C(=O)C(=O)NC1CC1)C(C)(C)C` (single isomer, unassigned) [Example 56, Methyl ((S)-1-((R or S)-(3-(((S)-1-(cyclopropylamino)-6,6-difluoro-1,2-dioxoheptan-3-yl)carbamoyl)-8,8-difluoro-2-azaspiro[4.5]decan-2-yl)-3,3-dimethyl-1-oxobutan-2-yl)carbamate], the IC50 is reported as 291 nM.
`COC(=O)N[C@H](C(=O)N1CC(C2COC2)C[C@H]1C(=O)N[C@@H](CCC(C)(F)F)C(=O)C(=O)NC1CC1)C(C)(C)C` (single isomer, unassigned) [Example 57, Methyl ((S)-1-((2S, 4(R or S))-2-(((S)-1-(cyclopropylamino)-6,6-difluoro-1,2-dioxoheptan-3-yl)carbamoyl)-4-(oxetan-3-yl)pyrrolidin-1-yl)-3,3-dimethyl-1-oxobutan-2-yl)carbamate] was tested, and the IC50 was 305 nM.
Work on `COC(=O)N[C@H](C(=O)N1CCC(O)(C(F)(F)F)C[C@H]1C(=O)N[C@@H](CCC(C)(F)F)C(=O)C(=O)NC1CC1)C(C)(C)C` (single isomer, unassigned) [Example 58, Methyl ((S)-1-((2S, 4(R or S))-2-(((S)-1-(cyclopropylamino)-6,6-difluoro-1,2-dioxoheptan-3-yl)carbamoyl)-4-hydroxy-4-(trifluoromethyl)piperidin-1-yl)-3,3-dimethyl-1-oxobutan-2-yl)carbamate] yielded an IC50 of 347 nM.
`COC(=O)NC(C(=O)N1CC2(CCCCC2)C[C@H]1C(=O)N[C@@H](CCC(C)(F)F)C(=O)C(=O)NC1CC1)C1CCC1` (single isomer, unassigned) [Example 63, Methyl ((R or S)-1-cyclobutyl-2-((S)-3-(((S)-1-(cyclopropylamino)-6,6-difluoro-1,2-dioxoheptan-3-yl)carbamoyl)-2-azaspiro[4.5]decan-2-yl)-2-oxoethyl)carbamate] showed an IC50 of 32 nM.
With `CCC1CCN(C(=O)[C@@H](NC(=O)OC)C(C)(C)C)C1C(=O)N[C@@H](CCC(C)(F)F)C(=O)C(=O)NC1CC1` (single isomer, unassigned) [Example 72, Methyl ((S)-1-((2(R or S),3(R or S))-2-(((S)-1-(cyclopropylamino)-6,6-difluoro-1,2-dioxoheptan-3-yl)carbamoyl)-3-ethylpyrrolidin-1-yl)-3,3-dimethyl-1-oxobutan-2-yl)carbamate] the IC50 was 48 nM.
For `COC(=O)N[C@H](C(=O)N1CCC(C)(C)C1C(=O)N[C@@H](CCC(C)(F)F)C(=O)C(=O)NC1CC1)C(C)(C)C` (single isomer, unassigned) [Example 73, Methyl ((S)-1-((R or S)-2-(((S)-1-(cyclopropylamino)-6,6-difluoro-1,2-dioxoheptan-3-yl)carbamoyl)-3,3-dimethylpyrrolidin-1-yl)-3,3-dimethyl-1-oxobutan-2-yl)carbamate], the IC50 was 60 nM.
`COC(=O)N[C@H](C(=O)N1C(C(=O)N[C@@H](CCC(C)(F)F)C(=O)C(=O)NC2CC2)[C@H]2CC[C@@H]1C2)C(C)(C)C` (single isomer, unassigned) [Example 77, Methyl ((S)-1-((1R, 3(R or S),4S)-3-(((S)-1-(cyclopropylamino)-6,6-difluoro-1,2-dioxoheptan-3-yl)carbamoyl)-2-azabicyclo[2.2.1]heptan-2-yl)-3,3-dimethyl-1-oxobutan-2-yl)carbamate] was tested, and the IC50 was 133 nM.
Work on `COC(=O)N[C@H](C(=O)N1CC(C(F)(F)F)CCC1C(=O)N[C@@H](CCC(C)(F)F)C(=O)C(=O)NC1CC1)C(C)(C)C` (single isomer, unassigned) [Example 82, methyl ((S)-1-((2S,5S or 2R,5R)-2-(((S)-1-(cyclopropylamino)-6,6-difluoro-1,2-dioxoheptan-3-yl)carbamoyl)-5-(trifluoromethyl)piperidin-1-yl)-3,3-dimethyl-1-oxobutan-2-yl)carbamate] yielded an IC50 of 51 nM.
Molecule `COC(=O)N[C@H](C(=O)N1CCC2CC2[C@H]1C(=O)N[C@@H](CCC(C)(F)F)C(=O)C(=O)NC1CC1)C(C)(C)C` (single isomer, unassigned) [Example 83, methyl ((S)-1-((1R,2S,6R or 1R,2S,6S)-2-(((S)-1-(cyclopropylamino)-6,6-difluoro-1,2-dioxoheptan-3-yl)carbamoyl)-3-azabicyclo[4.1.0]heptan-3-yl)-3,3-dimethyl-1-oxobutan-2-yl)carbamate] has an IC50 of 83 nM.
With `COC(=O)N[C@H](C(=O)N1CC2CC2C[C@H]1C(=O)N[C@@H](CCC(C)(F)F)C(=O)C(=O)NC1CC1)C(C)(C)C` (single isomer, unassigned) [Example 84, methyl ((S)-1-((1S,4S,6S or 1R,4S,6R)-4-(((S)-1-(cyclopropylamino)-6,6-difluoro-1,2-dioxoheptan-3-yl)carbamoyl)-3-azabicyclo[4.1.0]heptan-3-yl)-3,3-dimethyl-1-oxobutan-2-yl)carbamate] the IC50 was 96 nM.
Work on `COC(=O)N[C@H](C(=O)N1CCCC(C2CC2)C1C(=O)N[C@@H](CCC(C)(F)F)C(=O)C(=O)NC1CC1)C(C)(C)C` (single isomer, unassigned) [Example 90, methyl ((S)-1-((2S,3R or 2R,3S)-3-cyclopropyl-2-(((S)-1-(cyclopropylamino)-6,6-difluoro-1,2-dioxoheptan-3-yl)carbamoyl)piperidin-1-yl)-3,3-dimethyl-1-oxobutan-2-yl)carbamate] yielded an IC50 of 16 nM.
`CNC(=O)C(=O)[C@H](CCC(C)(F)F)NC(=O)[C@@H]1CC2(CN1C(=O)[C@@H](NC(=O)OC)C(C)(C)C)CC2(F)F` (single isomer, unassigned) [Example 93, methyl ((S)-1-((3(S or R),6S)-6-(((S)-6,6-difluoro-1-(methylamino)-1,2-dioxoheptan-3-yl)carbamoyl)-1,1-difluoro-5-azaspiro[2.4]heptan-5-yl)-3,3-dimethyl-1-oxobutan-2-yl)carbamate] was tested, and the IC50 was 28 nM.
With `CNC(=O)C(=O)[C@H](CCC(C)(F)F)NC(=O)C1C2CC(C)(C)C2CN1C(=O)[C@@H](NC(=O)OC)C(C)(C)C` (single isomer, unassigned) [Example 95, methyl ((S)-1-((1S,2S,5S or 1R,2R,5R)-2-(((S)-6,6-difluoro-1-(methylamino)-1,2-dioxoheptan-3-yl)carbamoyl)-6,6-dimethyl-3-azabicyclo[3.2.0]heptan-3-yl)-3,3-dimethyl-1-oxobutan-2-yl)carbamate] the IC50 was 5 nM.
In the case of `CNC(=O)C(=O)[C@H](CCC(C)(F)F)NC(=O)C1CC(C)(F)CCN1C(=O)[C@@H](NC(=O)OC)C(C)(C)C` (single isomer, unassigned) [Example 97, methyl ((S)-1-((2S,4S or 2R,4R)-2-(((S)-6,6-difluoro-1-(methylamino)-1,2-dioxoheptan-3-yl)carbamoyl)-4-fluoro-4-methylpiperidin-1-yl)-3,3-dimethyl-1-oxobutan-2-yl)carbamate], the IC50 is reported as 19 nM.
`COC(=O)N[C@H](C(=O)N1CC2(C(F)(F)F)CCCC2C1C(=O)N[C@@H](CCC(C)(F)F)C(=O)C(=O)NC1CC1)C(C)(C)C` (single isomer, unassigned) [Example 98, methyl ((S)-1-((1S,3aS,6aS or 1R,3aR,6aR)-1-(((S)-1-(cyclopropylamino)-6,6-difluoro-1,2-dioxoheptan-3-yl)carbamoyl)-3a-(trifluoromethyl)hexahydrocyclopenta[c]pyrrol-2(1H)-yl)-3,3-dimethyl-1-oxobutan-2-yl)carbamate] gave an IC50 of 77 nM.
